# Results published in PMC10747822 (Pharmaceutics, 2023).
# Where a SMILES comes first, the peptide text is derived from it. [ ]: non-standard residue; d: D form. The star is where a group is joined. NH(4-amidinobenzyl) = N=C(N)c1ccc(CN*)cc1
# Columns and labels:
# [1] = Stock solution stability; assay type: physicochemical; settings: 2 weeks; solutions in ACN/H2O (1/1, v/v) + 0.1% FA in glass, kept at 4 °C
# Experimental: Calibration and quality control (QC) spike solutions were prepared in ACN/H2O (1/1, v/v) + 0.1% FA in glass vials. These were produced from stock solution generated from accurately dissolved independent weighings into 2 mL volumetric flasks. Calibration solutions were prepared at concentrations of 8, 24, 80, 240, 800, […], and 8000 ng/mL. QC solutions were prepared at concentrations of 8, 24, 3000, and 6000 ng/mL. The IS spike solution was prepared accordingly at a concentration of 400 ng/mL. Solutions were kept at 4 °C.
# Extraction via protein precipitation combined with UPLC-MS/MS quantification for Ac-[D-Leu]LLLRVK-amba complied with the FDA and EMA recommendations for accuracy, precision, linearity, matrix effects, and recovery. Within the calibrated range (10–10,000 ng/mL), correlation coefficients (r^2) of >0.99 were obtained using linear regression and 1/x^2 weighting (Table S3). Table 1 gives an overview of the intraday and interday accuracies and precision values during validation, which were well within the required limits. The observed carry-over after the highest calibration sample was 0.015% and within the required limits of less than 20% of the peak area of the LLOQ. Stock solution stability was established for 2 weeks, which was sufficient to cover sample analyses with an accuracy of 93.7% of the peak areas of the stored solutions compared to initial values.
# [2] = Stability in human Li-heparin plasma; assay type: in vitro ADME; settings: pooled human Li-heparin plasma, over at least 2 h; 1000 ng/mL, room temperature; UPLC-MS/MS
# Experimental: (§1) To investigate peptide stability, minimally diluted plasma or blood samples were generated through the addition of 10 µL of a spiking solution (50,000 ng/mL) to 490 µL of the pertinent biological matrix, resulting in a sample concentration of 1000 ng/mL. Samples (withdrawal of duplicates of 20 µL) were measured immediately after preparation and again after 1 and 2 h. Stability was evaluated via the comparison of peak area ratios of analyte and IS.
# Because an isotopically labeled analog of Ac-[D-Leu]LLLRVK-amba was used as IS, potential variations in (negligible) matrix effects can be efficiently balanced by the IS due to its identical physicochemical characteristics. As a consequence, whole blood from other species is appropriate for calibration and QC preparation. Therefore, whole blood from human donors was used for these purposes, which also helps to reduce animal sacrifice.
# [3] = Autosampler (extract) stability; assay type: physicochemical; settings: 24 h in autosampler
# Experimental: Blood samples for calibration and QC purposes were generated through the addition of 25 µL of the pertinent spike solution to 20 µL of blank blood and the subsequent addition of 25 µL of IS solution. Calibration samples were produced at 10, 30, 100, 300, 1000, 3000, and 10,000 ng/mL, and QC samples were produced at concentrations of 10, 30, 3750, and 7500 ng/mL. For study sample processing, 20 µL of each sample was added to 25 µL of IS solution, and 25 µL of ACN/H2O 1/1 + 0.1% FA was added for volume compensation to ensure that sample preparation matches that of study blood samples. For stability reasons, each sample was immediately depleted from proteins by adding 150 µL ACN including 0.1% FA. Samples were processed individually and kept frozen until processing. Subsequently, samples were centrifuged at 13,200× g for 5 min. From the extracts, 10 µL was transferred to 400 µL of ACN/H2O 1/19 + 0.1% FA in wells of a 96-well collection plate (Waters, Milford, MA, USA).
# The instrumental setup comprised an Acquity UPLC® Classic System coupled to a Xevo TQ-S triple-stage quadrupole mass spectrometer, which was equipped with a Z-spray heated electrospray ionization (ESI) source (Waters, Milford, MA, USA). […] This yielded an optimal cone voltage of 30 V and collision energy of 10 V. The monitored mass transitions were m/z 343.3 → 436.9 for Ac-[D-Leu]LLLRVK-amba and m/z 345.6 → 440.4 for the IS.
# The applicable recommendations for bioanalytical method validation of the FDA and EMA were applied to the validation of the assay. Accuracy was calculated as the percentage of the ratio of the mean of the determined concentrations and the nominal concentration. The acceptance limit is 100 ± 15%, with the exception of the LLOQ where it is 100 ± 20% Q. The assay precision was calculated as the coefficient of variation of the determined sample concentrations. […] Recovery of the whole blood extraction process was calculated from peak areas of QC samples divided by the peak areas obtained from blank blood spiked with the respective amount after processing. […]
# [4] = Bench-top stability in fresh mouse whole blood; assay type: in vitro ADME; settings: minimally diluted, 1 µg/mL (1000 ng/mL), room temperature, sampled at 0, 1 and 2 h, duplicates of 20 µL, UPLC-MS/MS peak area ratio analyte/IS, read-out: calculated half-life in whole blood (converted)
# Experimental: as §1
# To determine which biological matrix is best suited for pharmacokinetic experiments in mice, we investigated the bench-top stability of Ac-[D-Leu]LLLRVK-amba in plasma and fresh whole blood at room temperature over a 2 h period (Figure 3). In plasma, anti-coagulated with Li-heparin, Ac-[D-Leu]LLLRVK-amba was very rapidly degraded.
smiles,measurement,setting,value
CC(=O)N[C@H](CC(C)C)C(=O)N[C@@H](CC(C)C)C(=O)N[C@@H](CC(C)C)C(=O)N[C@@H](CC(C)C)C(=O)N[C@@H](CCCNC(=N)N)C(=O)N[C@H](C(=O)N[C@@H](CCCCN)C(=O)NCc1ccc(C(=N)N)cc1)C(C)C [Ac-[D-Leu]LLLRVK-amba] (Ac-[dL]LLLRVK-{NH(4-amidinobenzyl)}),"stock solution stability, accuracy of peak areas of stored solutions compared to initial values",[1],93.7%
same,degradation in human Li-heparin plasma,[2],no detectable degradation
same,"autosampler (extract) stability, Accuracy [%]",[3]; QC A,98.3%
same,"autosampler (extract) stability, Accuracy [%]",[3]; QC B,99.7%
same,"autosampler (extract) stability, Accuracy [%]",[3]; QC C,97.5%
same,half-life at 1000 ng/mL,[4],1.39 h
